Experimental data from ChEMBL document CHEMBL1201862, “PubChem BioAssay data set” (2004).
Calls of active or inactive are those of the source.

What was measured:
[1] = inhibitors of HIV Env-driven cell fusion, dose response, cherry-pick (AID 652057); format: functional, cell-based
[2] = CEM21 lymphoblast cell cytotoxicity, dose response, cytotoxicity control for viral fusion inhibitor project, CellTiter-Glo luminescence, cherry-picked (AID 652042); format: functional, cell-based;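 note: potency for signal decrease meaning cytotoxicity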
[3] = ZM109 Env clade C HIV-1 fusion inhibitors, dose response, HeLa effector, CEM target cells, luciferase, cherry-pick (AID 652058); format: functional, cell-based
[4] = inhibitors of clade B AD8 Env fusion, dose response, cell-based, cherry-pick (AID 652062); format: functional;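 note: luciferase signal from cell-cell fusion driven by HIV-1 clade B AD8 Env; potency is for inhibitors of fusion seen as a drop in luminescence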
Cytochrome P450 1A2 = target: T1, Cytochrome P450 1A2 (Homo sapiens, UniProt P05177);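 note: PubChem cytochrome P450 panel assay, CYP1A2 panel member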
T1 sequence (P05177 whole entry): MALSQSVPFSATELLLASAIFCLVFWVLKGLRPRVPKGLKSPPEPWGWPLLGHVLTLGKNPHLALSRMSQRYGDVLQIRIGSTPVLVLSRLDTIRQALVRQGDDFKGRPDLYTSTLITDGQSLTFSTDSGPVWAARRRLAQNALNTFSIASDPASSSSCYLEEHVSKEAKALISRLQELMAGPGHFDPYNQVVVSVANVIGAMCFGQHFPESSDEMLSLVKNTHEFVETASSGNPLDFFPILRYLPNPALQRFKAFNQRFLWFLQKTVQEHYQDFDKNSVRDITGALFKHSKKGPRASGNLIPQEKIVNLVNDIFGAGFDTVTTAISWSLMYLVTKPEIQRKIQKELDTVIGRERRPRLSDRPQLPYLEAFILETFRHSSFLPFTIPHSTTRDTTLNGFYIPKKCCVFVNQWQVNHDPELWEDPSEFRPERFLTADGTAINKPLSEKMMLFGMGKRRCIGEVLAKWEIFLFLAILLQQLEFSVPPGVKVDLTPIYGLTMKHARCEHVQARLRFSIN

Cytochrome P450 2C9 = Cytochrome P450 2C9 (Homo sapiens, UniProt P11712)
[5] = AlphaScreen signal interference compounds, dose response, artefact control for ARNT-TACC3 interaction inhibitor project, biochemical, luminescence, cherry-pick (AID 651705); format: functional;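 note: AlphaScreen bead proximity signal that flags compounds interfering with the detection technology; potency reflects signal decrease which marks the compound as an assay artifact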
cells [6] = format: functional, cell-based
[7] = target: T2, Trace amine-associated receptor 1 (Homo sapiens, UniProt Q96RJ0); assay: Fluorescence-based cell-based high throughput dose response assay to identify agonists of the human trace amine associated receptor 1 (TAAR1).; format: functional
T2 sequence (Q96RJ0 whole entry): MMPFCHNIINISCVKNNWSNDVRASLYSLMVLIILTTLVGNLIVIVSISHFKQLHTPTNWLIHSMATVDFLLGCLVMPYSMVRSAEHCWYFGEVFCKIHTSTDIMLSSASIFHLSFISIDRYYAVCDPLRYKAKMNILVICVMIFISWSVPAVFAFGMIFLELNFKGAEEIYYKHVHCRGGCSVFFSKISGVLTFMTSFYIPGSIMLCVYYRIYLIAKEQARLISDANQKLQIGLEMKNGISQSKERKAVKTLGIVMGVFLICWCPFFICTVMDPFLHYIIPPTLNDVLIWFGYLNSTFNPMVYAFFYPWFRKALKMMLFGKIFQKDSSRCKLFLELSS

[8] = target: T2, Trace amine-associated receptor 1; assay: Counterscreen for agonists of the human trace amine associated receptor 1 (hTAAR1): Fluorescence-based cell-based high throughput dose response assay to identify hTAAR1 agonist that also desensitize TAAR1 receptor response.; format: functional
cells [9] = format: functional, cell-based; remark: listed apart in the source
[10] = target: T3, DNA repair and recombination protein RAD54-like (Homo sapiens, UniProt Q92698); assay: inhibitors of human RAD54 branch migration, confirmation, biochemical, fluorescence, cherry-picked samples, dose series (AID 651657); format: functional
T3 sequence (Q92698 whole entry): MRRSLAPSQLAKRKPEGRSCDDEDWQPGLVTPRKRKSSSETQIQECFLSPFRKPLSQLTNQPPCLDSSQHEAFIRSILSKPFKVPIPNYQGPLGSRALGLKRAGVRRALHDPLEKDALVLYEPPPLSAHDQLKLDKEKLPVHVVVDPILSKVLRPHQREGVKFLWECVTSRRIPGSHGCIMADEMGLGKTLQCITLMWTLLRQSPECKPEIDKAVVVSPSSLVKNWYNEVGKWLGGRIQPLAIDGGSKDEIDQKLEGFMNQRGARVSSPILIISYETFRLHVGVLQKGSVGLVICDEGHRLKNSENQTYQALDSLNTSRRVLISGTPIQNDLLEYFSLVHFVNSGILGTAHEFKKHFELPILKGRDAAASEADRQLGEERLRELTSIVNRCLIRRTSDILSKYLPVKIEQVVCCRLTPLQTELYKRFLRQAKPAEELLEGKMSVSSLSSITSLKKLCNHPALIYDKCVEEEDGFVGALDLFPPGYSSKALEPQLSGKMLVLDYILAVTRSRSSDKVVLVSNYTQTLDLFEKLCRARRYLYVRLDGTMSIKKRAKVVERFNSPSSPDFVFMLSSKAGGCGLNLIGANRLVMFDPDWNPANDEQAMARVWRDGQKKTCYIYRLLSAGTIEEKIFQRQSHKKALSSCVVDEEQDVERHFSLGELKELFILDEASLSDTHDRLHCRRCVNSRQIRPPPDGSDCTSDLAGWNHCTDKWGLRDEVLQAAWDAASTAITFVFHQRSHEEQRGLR

[11] = target: T4, Rac GTPase-activating protein 1 (Homo sapiens, UniProt Q9H0H5); assay: MgcRacGAP GTPase-activating activity inhibitors, confirmation, biochemical, ADP Hunter fluorescence, primary and confirmatory (AID 624330); format: functional
T4 sequence (Q9H0H5 whole entry): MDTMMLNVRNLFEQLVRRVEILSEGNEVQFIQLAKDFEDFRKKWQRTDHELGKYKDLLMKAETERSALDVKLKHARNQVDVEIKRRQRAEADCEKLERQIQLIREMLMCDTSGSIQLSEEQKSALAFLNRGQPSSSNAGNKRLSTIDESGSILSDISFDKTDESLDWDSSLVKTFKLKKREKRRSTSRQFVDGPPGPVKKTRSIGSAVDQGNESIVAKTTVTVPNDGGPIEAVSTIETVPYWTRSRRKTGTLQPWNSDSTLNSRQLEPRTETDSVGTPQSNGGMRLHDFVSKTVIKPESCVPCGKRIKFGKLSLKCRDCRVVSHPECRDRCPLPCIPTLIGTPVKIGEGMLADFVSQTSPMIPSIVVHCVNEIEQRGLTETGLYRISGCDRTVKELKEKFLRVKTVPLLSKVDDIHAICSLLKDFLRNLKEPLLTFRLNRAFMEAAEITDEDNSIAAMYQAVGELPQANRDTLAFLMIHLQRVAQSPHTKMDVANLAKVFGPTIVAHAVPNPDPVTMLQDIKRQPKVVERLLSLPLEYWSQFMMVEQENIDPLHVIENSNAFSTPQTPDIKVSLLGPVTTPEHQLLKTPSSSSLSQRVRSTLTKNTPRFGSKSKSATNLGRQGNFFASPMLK

[12] = target: T5, Ubiquitin-conjugating enzyme E2 N (Homo sapiens, UniProt P61088); format: functional;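 note: Dose-response confirmation in a TR-FRET assay detecting UBC13-driven polyubiquitin chain formation, inhibition measured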
T5 sequence (P61088 whole entry): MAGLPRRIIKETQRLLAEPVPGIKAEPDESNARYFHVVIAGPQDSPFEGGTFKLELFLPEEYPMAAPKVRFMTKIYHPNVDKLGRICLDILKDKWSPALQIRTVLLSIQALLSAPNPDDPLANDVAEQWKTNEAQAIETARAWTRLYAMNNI

[13] = target: T6, DNA repair protein RAD52 homolog (Homo sapiens, UniProt P43351); format: functional, biochemical
T6 sequence (P43351 whole entry): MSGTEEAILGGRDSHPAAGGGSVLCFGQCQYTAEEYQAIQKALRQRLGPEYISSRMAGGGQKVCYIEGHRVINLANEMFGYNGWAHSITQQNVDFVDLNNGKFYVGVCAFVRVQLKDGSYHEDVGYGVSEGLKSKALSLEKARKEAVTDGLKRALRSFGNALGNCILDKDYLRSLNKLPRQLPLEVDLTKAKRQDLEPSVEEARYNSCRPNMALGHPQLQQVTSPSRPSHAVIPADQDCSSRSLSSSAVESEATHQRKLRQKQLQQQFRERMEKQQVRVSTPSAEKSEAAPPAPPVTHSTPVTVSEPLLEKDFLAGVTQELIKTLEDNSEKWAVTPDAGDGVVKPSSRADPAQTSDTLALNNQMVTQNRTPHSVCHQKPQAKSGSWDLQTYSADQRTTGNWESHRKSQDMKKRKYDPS

[14] = HeLa cell cytotoxicity, dose response, cytotoxicity control for MgcRacGAP inhibitor project (AID 624300); format: functional
[15] = cytotoxicity toward NIH3T3 fibroblasts, dose response, counter-screen, cell-based, ATP luminescence, mouse fibroblasts (AID 2010); format: functional;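 note: cells exposed to compound for about 90 hours before reading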
[16] = system: Streptococcus sp. 'group A'; assay: growth inhibition of control SK(-) GAS strain, dose response, counter-screen for streptokinase expression inhibitor project, luminescence, kanamycin, BacTiterGlo, confirmation (AID 1900); format: functional, organism-based
Streptokinase A = target: T7, Streptokinase A (Streptococcus pyogenes serotype M1, UniProt P10520); assay: S. pyogenes streptokinase expression inhibitors, potency, dose response, plasminogen activation absorbance, OD405 (AID 1914); format: functional, Streptococcus pyogenes M1 GAS;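 note: secreted streptokinase activity via plasminogen activation per viability signal from cell pellet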
T7 sequence (P10520 whole entry): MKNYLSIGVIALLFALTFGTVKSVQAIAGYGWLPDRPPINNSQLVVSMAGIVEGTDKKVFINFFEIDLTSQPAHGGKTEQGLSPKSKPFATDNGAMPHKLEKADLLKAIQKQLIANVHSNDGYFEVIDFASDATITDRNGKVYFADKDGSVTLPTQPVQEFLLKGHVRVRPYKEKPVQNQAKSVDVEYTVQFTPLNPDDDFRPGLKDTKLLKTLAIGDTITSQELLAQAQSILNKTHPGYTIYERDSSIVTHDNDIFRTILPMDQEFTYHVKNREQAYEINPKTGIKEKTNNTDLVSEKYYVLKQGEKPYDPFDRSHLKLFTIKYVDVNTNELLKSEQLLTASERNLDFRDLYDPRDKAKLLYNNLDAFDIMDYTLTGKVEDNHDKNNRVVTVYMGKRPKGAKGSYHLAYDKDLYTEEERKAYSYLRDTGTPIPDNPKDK

Streptococcus = assay: Group A Streptococcus viability loss, dose response, counter-screen for streptokinase expression inhibitor project, luminescence, BacTiterGlo (AID 1915); format: functional, organism-based;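 note: potency for reduction of bacterial viability or growth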
[17] = inhibitors of intracellular T. cruzi replication, confirmation, NIH3T3 host cells, beta-gal luminescence (AID 2044); format: functional, cell-based;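 note: intracellular parasites grown in NIH/3T3 mouse fibroblasts as host cells; luminescent beta-galactosidase reporter signal from transgenic T. cruzi replicating inside host cells; inhibitors lower the luminescence signal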

Sequence of Cytochrome P450 2C9 (P11712 whole entry): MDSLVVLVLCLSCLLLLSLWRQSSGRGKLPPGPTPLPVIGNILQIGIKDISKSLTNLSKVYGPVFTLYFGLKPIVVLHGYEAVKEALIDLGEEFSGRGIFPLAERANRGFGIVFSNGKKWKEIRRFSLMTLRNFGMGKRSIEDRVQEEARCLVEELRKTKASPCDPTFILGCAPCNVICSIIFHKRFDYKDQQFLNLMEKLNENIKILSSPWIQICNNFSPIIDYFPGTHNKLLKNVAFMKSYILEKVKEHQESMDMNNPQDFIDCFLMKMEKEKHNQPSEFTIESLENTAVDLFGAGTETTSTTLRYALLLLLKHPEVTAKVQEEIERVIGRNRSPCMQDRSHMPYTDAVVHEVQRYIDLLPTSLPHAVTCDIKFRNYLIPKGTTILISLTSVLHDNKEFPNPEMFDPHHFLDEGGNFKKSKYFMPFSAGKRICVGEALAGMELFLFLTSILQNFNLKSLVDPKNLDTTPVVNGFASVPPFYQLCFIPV

CCCCCCCCN1C(=O)[C@H](CC(=O)NCc2cccs2)C[C@@]2(C(=O)OCC)CCCC=C12
AC50 [1]: 16.8 µM (active) | AC50 [2]: 25.1 µM (active) | AC50 [3]: 17 µM (active) | AC50 [4]: 22.7 µM (active)

O=C(CSc1cccc2cccnc12)OCC(=O)c1ccccc1
AC50 (Cytochrome P450 1A2): 20 µM (inconclusive) | AC50 (Cytochrome P450 2C9): inconclusive | AC50 [5]: 92.5 µM (active)

CCc1ccccc1NC(=O)N1CCc2ccccc2C1
IC50 (cells [6]): > 29.9 µM (inactive) | EC50 [7]: 0.321 µM (active) | IC50 [8]: > 29.9 µM (inactive) | EC50 (cells [9]): > 29.9 µM (inactive)

CCOc1cc2nc(-c3ccc(OC)c(OC)c3)nc(NCCCN3CCOCC3)c2cc1OC
AC50 [10]: 5.2 µM (active) | AC50 [5]: 130 µM (active)

CN1CCN(CCCN2c3ccccc3Sc3ccc(Cl)cc32)CC1 [PROCHLORPERAZINE EDISYLATE]
IC50 [11]: 80 µM (active) | IC50 [12]: > 20 µM (inactive) | AC50 [13]: 17.6 µM (active) | CC50 [14]: 65 µM (active)

CCOc1ccc(NC(=O)c2c(NC(=O)CNCCN3CCOCC3)sc3c2CCC3)cc1
EC50 [15]: > 30 µM (not active) | EC50 [16]: 1.95 µM (active) | EC50 (Streptokinase A): > 150 µM (not active) | EC50 (Streptococcus): 59.5 µM (active) | EC50 [17]: 1.74 µM (active) | AC50 [5]: 75.1 µM (active)

COc1ccc(NC(=O)Nc2ccc3c(c2)CC(=O)N([C@@H](C)CO)C[C@@H](C)[C@H](CN(C)Cc2ccc(C(F)(F)F)cc2)O3)cc1
AC50 [1]: 6.8 µM (active) | AC50 [2]: 23.2 µM (active) | AC50 [3]: 2.67 µM (active) | AC50 [4]: 27 µM (active)

Cc1cc(S(=O)(=O)Nc2cccc(Cl)c2)c(C)s1
IC50 (cells [6]): > 29.9 µM (inactive) | EC50 [7]: 4.88 µM (active) | IC50 [8]: 8.66 µM (active) | EC50 (cells [9]): > 29.9 µM (inactive)

CN(C)CCNc1cc(-c2ccncc2)nc2ccccc12
AC50 [10]: 17.2 µM (active) | AC50 [13]: 4.09 µM (active)
